# Laboratory results as given in publication PMC9743093 (Journal of Medicinal Chemistry, 2022).
# Where a SMILES comes first, the peptide text is derived from it. The star is where a group is joined. Cbz = O=C(OCc1ccccc1)*
# Assays:
# [1] = Pharmacokinetics in C57BL/6 mice; assay type: in vivo; settings: mouse, single 25 mg/kg ip.
# [2] = tested on: NF-κB p65 DNA binding activity; experiment: NF-κB; assay type: cell-based, human; settings: U87 nuclear extracts, 10 μM
# IDO2 = experiment: IDO1/IDO2 mRNA expression in GL261 cells; assay type: cell-based, mouse; settings: 10 µM, 24 hours
# IDO1 [3] = target: T1, IDO1 (Homo sapiens, UniProt P14902); experiment: IDO1 degradation by western blot in IFNγ-stimulated U87 cells; settings: for effect on IDO1 protein levels: U87 and GBM43 GBM cells in vitro, western blot; for effect of co-treatment on NU223612-induced IDO1 degradation: combined with NU223612
# T1 sequence (P14902 whole entry): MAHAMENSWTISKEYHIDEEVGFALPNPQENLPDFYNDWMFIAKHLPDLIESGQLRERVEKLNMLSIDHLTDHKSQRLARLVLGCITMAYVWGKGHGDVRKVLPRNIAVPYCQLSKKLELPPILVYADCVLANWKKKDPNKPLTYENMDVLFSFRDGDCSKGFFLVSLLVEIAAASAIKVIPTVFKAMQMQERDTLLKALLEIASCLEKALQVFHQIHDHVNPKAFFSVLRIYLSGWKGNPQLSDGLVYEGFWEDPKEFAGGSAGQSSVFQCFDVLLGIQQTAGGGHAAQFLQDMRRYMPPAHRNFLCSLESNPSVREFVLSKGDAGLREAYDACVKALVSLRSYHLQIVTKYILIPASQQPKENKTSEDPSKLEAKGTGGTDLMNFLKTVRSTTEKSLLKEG
# [4] = target: NU223612/IDO1/CRBN ternary complex (Homo sapiens, UniProt P14902+Q96SW2); experiment: BLI of NU223612 pre-incubated with CRBN binding to IDO1
# Sequence of NU223612/IDO1/CRBN ternary complex (P14902 whole entry): as above
# Sequence of NU223612/IDO1/CRBN ternary complex (Q96SW2 whole entry): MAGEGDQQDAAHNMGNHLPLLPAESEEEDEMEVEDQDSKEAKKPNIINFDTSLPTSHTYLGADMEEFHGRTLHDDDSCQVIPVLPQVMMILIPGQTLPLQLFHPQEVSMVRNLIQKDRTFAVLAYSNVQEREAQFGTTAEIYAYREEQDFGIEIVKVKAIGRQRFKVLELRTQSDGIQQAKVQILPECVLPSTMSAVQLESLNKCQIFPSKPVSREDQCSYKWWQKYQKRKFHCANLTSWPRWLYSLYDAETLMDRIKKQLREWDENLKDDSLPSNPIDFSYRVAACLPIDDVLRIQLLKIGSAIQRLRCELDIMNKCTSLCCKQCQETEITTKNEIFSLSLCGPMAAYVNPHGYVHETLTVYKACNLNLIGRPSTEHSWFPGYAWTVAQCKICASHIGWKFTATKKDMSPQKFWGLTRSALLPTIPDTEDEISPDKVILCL
# IDO1 [5] = target: T1, IDO1; experiment: IDO1 degradation by western blot in IFNγ-stimulated GBM43 cells; settings: 24 h, 0.01-30 μM, n = 3
# IDO1 [6] = target: T1, IDO1; experiment: IDO1 ubiquitination assay in U87 IDO1-FLAG cDNA-expressing cells; assay type: cell-based; settings: immunoprecipitation, vs DMSO
# GL261-luc. cells = experiment: Survival of mice with intracranial GL261-luc. tumors; assay type: in vivo, C57BL/6 mice; settings: 25 mg/kg once per day Monday-Friday up to 3 weeks, from day 14 post-injection
# IDO1 [7] = target: T1, IDO1; experiment: BLI binding of compounds to immobilized IDO1
# [8] = In vivo toxicity in C57BL/6 mice
# IDO1 [9] = experiment: IDO1 degradation by western blot in further cancer cell lines; assay type: cell-based, human; settings: CD18, PANC-1, OVCAR5, SKOV3, PC3, GL261 IDO1-O/E; 24 h
# TDO2 = TDO2 (Homo sapiens, UniProt P48775); experiment: TDO2 western blot in U87 cells; assay type: cell-based; settings: 24 h
# Sequence of TDO2 (P48775 whole entry): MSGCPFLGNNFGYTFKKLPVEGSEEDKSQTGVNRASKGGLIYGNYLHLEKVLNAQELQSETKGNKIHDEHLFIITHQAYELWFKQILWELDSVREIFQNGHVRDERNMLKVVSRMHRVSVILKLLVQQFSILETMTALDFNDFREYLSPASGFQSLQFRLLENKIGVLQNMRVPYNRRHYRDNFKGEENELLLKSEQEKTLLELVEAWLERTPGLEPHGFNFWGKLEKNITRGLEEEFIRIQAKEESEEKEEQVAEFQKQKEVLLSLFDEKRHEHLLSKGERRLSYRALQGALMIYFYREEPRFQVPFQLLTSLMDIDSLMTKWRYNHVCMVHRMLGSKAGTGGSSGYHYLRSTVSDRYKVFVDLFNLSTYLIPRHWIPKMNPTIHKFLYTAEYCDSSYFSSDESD
# [10] = tested on: NF-κB p65 phosphorylation; experiment: NF-κB p65 phosphorylation by western blot; assay type: cell-based, human; settings: IFNγ-stimulated U87, GBM43 or MDA-MB-231 cells
# IDO1 [11] = target: IDO1 (Mus musculus, UniProt P28776); experiment: Pharmacodynamics: IDO1 western blot of intracranial GL261 mIDO1 tumors; settings: GL261 mIDO1 cDNA tumors, single 25 mg/kg ip.
# Sequence of IDO1 (Mus musculus, UniProt P28776) (P28776 whole entry): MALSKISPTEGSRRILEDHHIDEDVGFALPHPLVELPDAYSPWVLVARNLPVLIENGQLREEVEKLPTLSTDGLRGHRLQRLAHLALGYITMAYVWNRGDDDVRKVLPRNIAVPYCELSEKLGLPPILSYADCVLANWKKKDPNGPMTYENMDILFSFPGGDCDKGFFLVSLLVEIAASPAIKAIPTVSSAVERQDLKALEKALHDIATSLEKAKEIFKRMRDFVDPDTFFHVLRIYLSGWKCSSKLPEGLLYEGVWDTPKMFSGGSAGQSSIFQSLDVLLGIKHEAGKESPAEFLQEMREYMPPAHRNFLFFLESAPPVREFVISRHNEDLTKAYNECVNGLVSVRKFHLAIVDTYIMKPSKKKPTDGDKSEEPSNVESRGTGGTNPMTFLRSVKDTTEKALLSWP
# IDO1 enzyme activity = IDO1 enzyme activity (Homo sapiens, UniProt P14902); experiment: Kynurenine assay; assay type: cell-based; settings: IFNγ-stimulated GBM cells (U87, GBM43), 24 h
# Sequence of IDO1 enzyme activity (P14902 whole entry): as the sequence (P14902 whole entry) above
# IDO1 [12] = target: T1, IDO1; experiment: IDO1 degradation by western blot in patient PBMCs; assay type: cell-based; settings: GBM patient-isolated PBMCs, 50 ng/mL IFNγ
# CRBN = CRBN (Homo sapiens, UniProt Q96SW2); experiment: BLI binding of compounds to immobilized CRBN; settings: steady-state, 30 °C, PBS with 0.5% DMSO
# Sequence of CRBN (Q96SW2 whole entry): as the sequence (Q96SW2 whole entry) above
smiles,measurement,setting,value
"C[C@@H](C(=O)Nc1ccc(OC2CCN(C(=O)CCOCCOCCNc3cccc4c3C(=O)N(C3CCC(=O)NC3=O)C4=O)CC2)cc1)[C@H]1CC[C@@H](c2ccnc3ccc(F)cc32)CC1 (stereo partly drawn) [NU223612, (2R)-N-(4-((1-(3-(2-(2-((2-(2,6-Dioxopiperidin-3-yl)-1,3-dioxoisoindolin-4-Yl)amino)ethoxy)ethoxy)propanoyl)piperidin-4-yl)oxy)phenyl)-2-((1S,4S)-4-(6-fluoroquinolin-4-yl)cyclohexyl)propenamide]","Cmax, brain",[1],2000 nM
same,NF-κB p65 transcription factor DNA binding activity,[2],inhibits both IDO1-mediated tryptophan metabolism as well as IDO1 non-enzyme-mediated NF-κB p65 transcription factor DNA binding activity
same,IDO2 (and IDO1) mRNA expression levels,IDO2,no significant NU223612 effects on glioma cell IDO2 expression levels
same,effect on IDO1 protein levels,IDO1 [3],decreases IDO1 protein levels dose-dependently
same,degradation of catalytically inactive mutant IDO1,"IDO1 [3]; U87 cells transfected with enzyme-null IDO1 cDNA, 24 h",facilitated protein degradation of IDO1 enzyme-dead protein
same,IDO1 protein degradation at 100 nM,"IDO1 [3]; U87 cells, 100 nM, 24 h",significant IDO1 protein degradation
same,duration of IDO1 degradation after a single continuous treatment,"IDO1 [3]; U87 cells, 1 and 10 μM",up to 72 h
same,DC50,"IDO1 [3]; U87 cells, IFNγ-stimulated, 24 h, 0.01-30 μM, n = 3",329 nM
same,effect of washout after 24 h on IDO1 degradation,"IDO1 [3]; U87 cells, cultured without compound up to 48 h",did not affect the degradation of IDO1 protein
same,nuclear and cytoplasmic IDO1 degradation,"IDO1 [3]; U87 cells, subcellular fractions",equally degraded IDO1 protein levels in both the cytoplasmic and nuclear intracellular compartments
same,duration of IDO1 degradation effect,"IDO1 [3]; human GBM cells (U87, GBM43)",at least 96 h
same,time at which IDO1 degradation began after treatment initiation,"IDO1 [3]; human GBM cells (U87, GBM43)",16 h
same,Kd,[4],117 nM
same,cooperativity α = Kd binary/Kd ternary,[4],2.5
same,koff,"[4]; read-out: koff, ternary NU223612/CRBN/IDO1 complex",0.0015 s⁻¹
same,kon,"[4]; read-out: kon, ternary NU223612/CRBN/IDO1 complex",12800 M⁻¹ s⁻¹
same,DC50,IDO1 [5],544 nM
same,ubiquitination of IDO1,IDO1 [6],causes monoubiquitination of IDO1
same,longer-term survival post-tumor cell injection,GL261-luc. cells,up to 45 days
same,koff,"IDO1 [7]; read-out: koff, NU223612/IDO1 binary complex",0.042 s⁻¹
same,kon,"IDO1 [7]; read-out: kon, NU223612/IDO1 binary complex",68900 M⁻¹ s⁻¹
same,mortality,[8]; 100 mg/kg ip. 5 days/week for 3 weeks,increased mortality
same,precipitation of compound in the abdomen,[8]; 50 and 100 mg/kg doses ip.,"precipitation of NU223612 observed around the intestines, liver, and pancreas"
same,accumulation in serum and brain tissue,"[8]; after 3 weeks ip., mice without brain tumors, mass spectrometry",dose-dependent accumulation of NU223612 in serum and brain tissue
same,body-weight changes,"[8]; ip. 5 days/week for 3 weeks, 10, 25, 50 or 100 mg/kg",did not result in significant body-weight changes at any dose
same,IDO1 degradation in other cancer cell types,IDO1 [9],dose-dependently degrades IDO1 in all of the human cancer cell types that were analyzed
same,effect on TDO2 protein levels,TDO2,did not decrease TDO2 protein levels
same,p65 phosphorylation,[10],decreases p65 phosphorylation
same,time IDO1 protein remains low in intracranial tumors,IDO1 [11],up to 24 h
same,decrease of IDO1 protein in intracranial tumors,IDO1 [11]; within 2 h post-treatment,> 70%
same,IDO1 enzyme activity (Kyn levels),IDO1 enzyme activity,dose-dependently inhibits IDO1 enzyme activity
same,IDO1 degradation in PBMCs,IDO1 [12],degrades IDO1 protein
"NS(=O)(=O)OC[C@@H]1C[C@@H](n2ccc3c(N[C@H]4CCc5ccccc54)ncnc32)C[C@@H]1O [MLN4924, reference compound]",effect of co-treatment on NU223612-induced IDO1 degradation,IDO1 [3]; U87 cells,ablation of IDO1-PROTAC-mediated IDO1 protein degradation
"Nc1cccc2c1C(=O)N(C1CCC(=O)NC1=O)C2=O (stereo not shown) [pomalidomide, reference compound]",effect of co-treatment on NU223612-induced IDO1 degradation,IDO1 [3]; U87 cells,ablation of IDO1-PROTAC-mediated IDO1 protein degradation
"CC(C)C[C@@H](C=O)NC(=O)[C@H](CC(C)C)NC(=O)[C@H](CC(C)C)NC(=O)OCc1ccccc1 [MG132, reference compound] (Cbz-Leu-Leu-Leu-aldehyde)",effect of co-treatment on NU223612-induced IDO1 degradation,IDO1 [3]; U87 cells,ablation of IDO1-PROTAC-mediated IDO1 protein degradation
"C[C@@H](C(=O)Nc1ccc(OC2CCN(C(=O)CCOCCOCCNc3cccc4c3C(=O)N(C3CCC(=O)N(C)C3=O)C4=O)CC2)cc1)[C@H]1CC[C@@H](c2ccnc3ccc(F)cc32)CC1 (stereo partly drawn) [NU226211, (2R)-2-((1S,4S)-4-(6-Fluoroquinolin-4-yl)cyclohexyl)-N-(4-((1-(3-(2-(2-((2-(1-methyl-2,6-dioxopiperidin-3-yl)-1,3-dioxoisoindolin-4-yl)amino)ethoxy)ethoxy)propanoyl)piperidin-4-yl)oxy)phenyl)propenamide]",effect on IDO1 protein levels,IDO1 [3],neither NU226211 nor NU223618 decreases IDO1 protein levels
same,ubiquitination of IDO1,IDO1 [6],neither NU226211 nor NU223618 mediated the ubiquitination
same,binding affinity (Kd) to CRBN,CRBN,no measurable binding
same,p65 phosphorylation,[10],neither NU226211 nor NU223618 inhibits NF-κB phosphorylation
"C[C@@H](C(=O)Nc1ccc(Cl)cc1)[C@H]1CC[C@@H](c2ccnc3ccc(F)cc32)CC1 [NU223618, reference compound]",p65 phosphorylation,[10],neither NU226211 nor NU223618 inhibits NF-κB phosphorylation
